From the supplement of paper PMC10307832

Compound: COc1nc(N)nc2c1ncn2[C@@H]1O[C@H](CO)[C@@H](O)[C@@H]1O [Nelarabine]
Assay: relative viability (nuclei count vs DMSO), 5 days (fraction); higher = more cells survive
In short: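 Only plates meeting two conditions passed: control CV below 25% and at least one doubling. Lung cancer cell lines, kept overnight at 37 °C in 1536-well plates, were pinned with five library-drug doses (not always all listed) √10 apart on vehicle-anchored plates and grown 5 days without medium change. A one-step fix, permeabilisation and Hoechst stain preceded 4× imaging and MetaXpress nuclear counting. Viability equals treated-well nuclei divided by vehicle-well nuclei, as the median over plates.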

Cell Line	relative viability (0.01 µM)	relative viability (0.03162 µM)	relative viability (0.1 µM)	relative viability (0.3162 µM)	relative viability (1 µM)
NCI-H2347	1.13	0.904	1.04	1.02	1.01
NCI-H3122	1.1	0.929	–	1.06	1.05
HCC-15	1.16	0.978	1.06	1.07	1.06
HCC-78	1.01	0.942	–	1.05	0.932
A549	1.19	1.04	1.02	1	0.911
PC-3 [JPC-3]	1.08	1.09	1.14	1.06	1.06
NCI-H1395	0.997	0.821	1.02	0.928	0.842
SK-MES-1	1.15	1.09	1.01	1.09	1.04
CAL-12T	1.15	1.02	0.969	0.99	1.05
LCLC-97TM1	0.939	–	0.971	0.95	0.878
HOP-62	1.02	1.02	1.06	1.01	1.01
NCI-H1703	1.3	1	1.06	1.06	0.953
NCI-H596	1.05	1.01	1	0.992	1.06
NCI-H2126	1.08	0.952	0.961	1.03	0.988
NCI-H2087	1.1	0.981	1.05	1.22	0.881
NCI-H1355	1.18	0.875	1.03	1.04	1.02
EBC-1	1.19	1.14	1.05	1.01	0.975
ABC-1	1.1	0.911	0.988	1.11	0.943
NCI-H358	1.1	0.928	0.804	1.06	1.05
NCI-H520	1.2	1.02	1.1	0.941	1.01
NCI-H2405	1.07	1.02	0.924	0.982	0.947
NCI-H2023	1.48	1.05	0.97	1.02	0.851
NCI-H1975	1.21	1.01	1.14	1.17	1.04
EPLC-272H	1.01	1	0.878	0.952	0.881
ChaGo-K-1	1.05	0.912	0.962	0.964	0.962
NCI-H2228	1.17	0.991	–	1.35	0.948
NCI-H650	0.942	0.996	0.962	1	1.04

Cell Line	relative viability (0.01 µM)	relative viability (0.03162 µM)	relative viability (0.1 µM)	relative viability (0.3162 µM)	relative viability (1 µM)
NCI-H1648	0.713	0.929	0.776	1.11	0.881
NCI-H1651	1.1	1.07	1.06	1.08	1.01
NCI-H522	1.01	0.949	1.09	0.843	1.05
NCI-H1993	1.03	0.863	1.02	0.959	0.987
HCC-827	1.03	0.93	0.97	0.828	0.823
NCI-H1299	1.07	1.07	1.04	1.07	1.03
SW 1573	1.13	1.04	0.995	1.05	0.979
NCI-H1944	1.15	0.984	1	0.987	0.869
NCI-H2170	1.16	0.912	0.956	1.07	1
COR-L 105	1.01	1.12	0.971	0.842	1.04
BEN	1.05	1.05	1.02	1.19	1.03
HARA	1.2	1.14	0.97	1.06	1.01
NCI-H1437	1.21	0.989	0.994	1.04	0.918
HCC-44	1	0.949	0.997	0.947	0.867
COR-L23	1.49	1.21	0.96	1.06	1.07
201T	1.03	0.907	1.04	1.02	0.999
SW 900	0.998	0.897	1.06	1	0.896
NCI-H23	1.22	0.911	1.01	0.987	0.96
EKVX	1.09	0.898	0.857	1.09	0.968
NCI-H1563	1.04	1.03	0.951	0.985	0.986
NCI-H2342	1.07	0.833	1.01	0.969	0.99
NCI-H1915	1.15	1.03	1.02	1	1.05
LU99A	0.965	0.952	0.956	0.946	1.07
LCLC-103H	1.15	1.01	1.03	1.03	1.07
LK-2	1.28	–	0.978	1.09	1.14
SK-LU-1	1.35	0.885	1.1	1.2	1.18
NCI-H1755	1.01	0.948	0.988	1.1	1.1

Cell Line	relative viability (0.01 µM)	relative viability (0.03162 µM)	relative viability (0.1 µM)	relative viability (0.3162 µM)	relative viability (1 µM)
NCI-H647	1.29	0.916	1.07	1.14	0.997
IA-LM	1.1	1.12	1.06	1.07	0.971
NCI-H1734	1.16	0.96	0.997	1.02	1.05
NCI-H727	1.22	0.891	0.856	0.97	0.896
NCI-H2009	1.23	1.07	1	1.02	1.03
LC-2-ad	1.14	1.05	0.984	1.05	0.989
NCI-H2085	1	1.04	0.963	0.995	0.958
NCI-H661	1.07	1.14	1	1.04	0.999
H3255	0.998	1.08	0.987	0.963	0.97
NCI-H1793	1.09	0.775	1.1	1.09	1
NCI-H441	1.31	1.11	0.987	1.14	1.09
NCI-H1623	0.869	1.12	0.965	0.979	0.931
NCI-H838	1.3	0.893	0.986	1.05	1.04
NCI-H460	1.24	1.09	1.01	1.2	1
NCI-H1650	1.13	0.999	0.845	0.978	0.928
PC-14	1.19	0.99	1.21	1.07	1.03
LXF-289	1.11	1.04	1.01	1.05	0.995
UMC-11	1.1	0.821	0.987	1.07	0.996
A-427	1.06	1.08	1.04	1.05	0.938
Calu-6	1.19	1.13	1.04	1.1	1.1
LOU-NH91	0.948	0.944	0.935	1.02	0.956
RERF-LC-KJ	1.18	1.09	1.06	1.07	1.02
NCI-H1666	1.05	1.15	0.978	0.97	0.967
NCI-H322M	0.963	0.896	0.884	0.937	0.923
HCC-366	1.28	0.865	0.982	1.08	1.02
NCI-H1792	0.973	0.928	1.16	1.06	0.855
